The values below come from patent US4771041A, “Method for combating virus infection” (priority 1976, dated 1988).

One assay has as its system influenza virus (WSN). Kind of assay: Influenza virus (WSN) plaque assay on MDCK monolayers. The format is cell-based, influenza (WSN Wilson Smith Neurotropic type A). The conditions noted are these: unidentified influenza virus, read-out: Inhibition of plaque.
Assay [1] relates to reverse transcriptase from RMuLV. Kind of assay: Cell-free reverse transcriptase inhibition, RMuLV. The format is biochemical, Rauscher murine leukemia virus. The note with it: template/primer (rA)n.(dT)10. Here is the method:
(§1) Reverse transcriptase from various retroviruses have been tested in cell-free assays for inhibition by phosphonoformic acid and phosphonoacetic acid. The assay conditions have been described by Collaborative Research, Inc, 1365 Main Street, Waltham, Mass., USA "Assay kit for mammalian viral reverse transcriptase". BLV and VV were prepared in this laboratory and all other viruses and viral enzyme were obtained from Dr. K Nilsson, Department of Pathology, University of Uppsala and from Boehringer Mannheim, Germany. Phosphonoformic acid (PFA) and phosphonoacetic acid (PAA) were added at pH 7.2 to the reaction mixtures at the start of the reaction.
(§2) Rauscher murine leukemia virus; RMuLV, visna virus; VV, avian myeloblastosis virus; AMV, bovine leukemia virus; BLV, baboon endogenous virus; BaEV, simian sarcoma virus; SSV.

The next assay relates to visna virus. Kind of assay: Visna virus growth in sheep choroid plexus (SCP) cells: virus titre and morphological changes. The note with it: for Morphological changes Day 3 / Morphological changes Day 5 / Morphological changes Day 7: Visna virus infected cells. In kind it is cell-based. Here is the method: Visna virus is a retrovirus that can multiply in sheep choroid (SCP) cells. The infection can be followed by titrating medium from infected cells to determine the formation of virus particles and by observing morphological changes as syncytial formation and cell degeneration.
Plates (5 cm) with primary SCP cells in medium 199 with 10% sheep serum were grown to confluence and then infected with 1×10^6 TCID50 (tissue culture infectious doses) of visna virus. One set of plates were left untreated, one set received different concentrations of phosphonoformic acid (PFA) at pH 7.2. Another set received phosphonoacetic acid (PAA) at pH 7.2. Uninfected plates were used as controls with and without PFA and PAA. The virus titre was determined 5 days after infection by the end-point titration method. The plates were checked daily in a light microscope to observe morphological changes.

Assay [2] deals with T1, reverse transcriptase from SSV (Woolly monkey sarcoma virus, UniProt P03359).
T1 construct: Reverse transcriptase from various retroviruses have been tested in cell-free assays
Kind of assay: Cell-free reverse transcriptase inhibition, SSV. The conditions noted are these: template/primer (rA)n.(dT)10, read-out: Percent inhibition. In kind it is biochemical, simian sarcoma virus. On the procedure:
as §1, §2

Assay [3] addresses T2, E. coli DNA dependent RNA polymerase (Escherichia coli, UniProt P0A8T7+P0A8V2).
T2 construct: purchased Sigma
Kind of assay: Inhibition of E. coli DNA dependent RNA polymerase. The format is biochemical. Here is the method:
(§3) Polymerases, nucleic acid template nucleoside triphosphates, of which guanosine triphosphate is tritium-labelled, salt and buffer are mixed at 0° C. in a total volume of 125 μl (for herpes DNA polymerase, see F. below). The concentrations of the nucleoside triphosphates UTP (uridine triphosphate), CTP (cytidinetriphosphate), GTP (guanosinetriphosphate) and ATP (adenosinetriphosphate) were generall 400, 400, 400, and 2000 μM, respectively. The test compound is also added in various concentrations to the mixture obtained. A standard mixture without test compound is also prepared using the same amounts of the ingredients. The enzyme reaction, i.e. synthesis of nucleic acid, is started by incubating the mixture at 37° C. For influenza RNA polymerases the temperature is 33° C. The reaction is allowed to proceed for 60 minutes in the assay of influenza and Micrococcus polymerases. […] The incorporation of labelled monomer into trichloroacetic acid insoluble nucleic acid product was measured in the following way. […] After drying the discs are measured for radioactivity in a liquid scintillation counter. The difference in radioactivity between samples with and without added compound is used to calculate the inhibition of the polymerase activity. The inhibition is expressed as percentage inhibition using the radioactivity of the standard sample as basis. […]

The test system of assay [4] is type B influenza virion-associated RNA polymerase. Kind of assay: Inhibition of type B influenza virion-associated RNA polymerase. In kind it is biochemical, influenza B Hongkong 8/73. The conditions noted are these: 500 μM; GTP 135 μM. On the procedure: as §3
The subject of another assay is HTLV-III. Kind of assay: HTLV-III replication in H9 cells. In kind it is cell-based. The conditions noted are these: Human immunodeficiency virus 1, 144 h. Here is the method: H9 cells constitute a human cell line that can be chronically infected with HTLV-III virus. (Science 1984; 224: 497-500). H9 cells were treated with polybrene (2 μg/ml) for 30 min. at 37° C., washed free of polybrene and infected with 2×10^8 HTLV-III virus particles per 4×10^5 H9 cells. […] The cultures were analyzed for HTLV-III reverse transcriptase activity as described above.

A further assay concerns herpes simplex type 1. Kind of assay: Herpes simplex type 1 plaque reduction assay on GMK monolayers. In kind it is cell-based. The conditions noted are these: mean of three experiments. On the procedure: The inhibition of influenza virus and herpes virus by phosphonoformic acid has been measured as plaque reaction according to the following procedures.
H. Inhibition by phosphonoformic acid of herpes simplex type 1 plaque
The plaque reduction assay for herpes simplex type 1 was performed on GMK (Green Monkey Kidney) cells as described by Ejereito et el., J. Gen. Virol. 2 (1968) 357. Monolayers on 5 cm petri dishes were used and after virus adsorption phosphonoformic acid was added in the medium.

The structures appear in SMILES notation.

T1 sequence (P03359 642-1310): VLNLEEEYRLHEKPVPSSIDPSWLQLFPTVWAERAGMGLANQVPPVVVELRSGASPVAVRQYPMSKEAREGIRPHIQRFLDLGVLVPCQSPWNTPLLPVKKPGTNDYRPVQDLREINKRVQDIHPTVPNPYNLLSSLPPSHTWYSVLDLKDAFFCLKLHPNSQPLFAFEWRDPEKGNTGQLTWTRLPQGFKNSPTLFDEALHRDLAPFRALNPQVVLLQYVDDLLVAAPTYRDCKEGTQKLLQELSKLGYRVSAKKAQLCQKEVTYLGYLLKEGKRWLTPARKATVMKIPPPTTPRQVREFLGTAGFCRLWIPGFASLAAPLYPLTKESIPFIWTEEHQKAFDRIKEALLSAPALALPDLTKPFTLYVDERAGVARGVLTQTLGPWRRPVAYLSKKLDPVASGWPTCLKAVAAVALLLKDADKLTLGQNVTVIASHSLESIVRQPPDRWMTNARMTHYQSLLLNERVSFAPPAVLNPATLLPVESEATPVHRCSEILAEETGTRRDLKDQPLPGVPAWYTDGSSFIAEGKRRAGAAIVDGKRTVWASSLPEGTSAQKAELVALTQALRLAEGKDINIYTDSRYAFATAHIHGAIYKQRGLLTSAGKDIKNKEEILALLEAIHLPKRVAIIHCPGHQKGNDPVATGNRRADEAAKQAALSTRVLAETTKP
T2 sequence (P0A8V2 whole entry): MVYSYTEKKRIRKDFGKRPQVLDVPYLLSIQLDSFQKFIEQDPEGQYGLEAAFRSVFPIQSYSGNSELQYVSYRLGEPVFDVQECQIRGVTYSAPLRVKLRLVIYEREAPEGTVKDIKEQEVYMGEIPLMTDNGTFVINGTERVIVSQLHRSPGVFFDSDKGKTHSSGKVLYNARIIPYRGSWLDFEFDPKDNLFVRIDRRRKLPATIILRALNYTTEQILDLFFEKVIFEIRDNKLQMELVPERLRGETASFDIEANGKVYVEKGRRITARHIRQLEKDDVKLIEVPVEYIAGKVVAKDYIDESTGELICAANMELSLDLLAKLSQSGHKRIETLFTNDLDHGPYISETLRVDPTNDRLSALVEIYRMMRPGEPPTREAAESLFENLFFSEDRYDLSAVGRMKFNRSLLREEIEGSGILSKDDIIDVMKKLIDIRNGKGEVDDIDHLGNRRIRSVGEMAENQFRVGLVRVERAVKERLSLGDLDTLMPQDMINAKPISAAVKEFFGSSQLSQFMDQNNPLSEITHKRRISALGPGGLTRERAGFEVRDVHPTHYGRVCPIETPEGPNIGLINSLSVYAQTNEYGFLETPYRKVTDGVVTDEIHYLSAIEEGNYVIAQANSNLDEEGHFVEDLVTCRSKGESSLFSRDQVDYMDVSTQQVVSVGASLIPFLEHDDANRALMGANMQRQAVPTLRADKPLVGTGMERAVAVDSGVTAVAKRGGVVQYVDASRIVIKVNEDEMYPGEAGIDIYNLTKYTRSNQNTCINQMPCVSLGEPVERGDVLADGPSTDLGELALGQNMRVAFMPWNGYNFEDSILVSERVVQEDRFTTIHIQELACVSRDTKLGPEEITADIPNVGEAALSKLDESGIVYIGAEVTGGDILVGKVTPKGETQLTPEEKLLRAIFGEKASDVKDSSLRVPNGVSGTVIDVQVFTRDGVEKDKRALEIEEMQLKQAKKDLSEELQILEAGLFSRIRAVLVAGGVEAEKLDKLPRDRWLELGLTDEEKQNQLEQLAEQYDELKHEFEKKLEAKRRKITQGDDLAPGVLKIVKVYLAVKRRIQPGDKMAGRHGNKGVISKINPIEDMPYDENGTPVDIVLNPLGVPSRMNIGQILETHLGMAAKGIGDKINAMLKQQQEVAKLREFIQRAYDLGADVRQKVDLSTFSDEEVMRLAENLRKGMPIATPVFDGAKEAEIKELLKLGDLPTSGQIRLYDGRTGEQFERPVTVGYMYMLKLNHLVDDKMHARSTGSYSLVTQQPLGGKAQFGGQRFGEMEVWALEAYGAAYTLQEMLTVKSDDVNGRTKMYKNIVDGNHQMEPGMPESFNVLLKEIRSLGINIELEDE
T2 sequence (P0A8T7 whole entry): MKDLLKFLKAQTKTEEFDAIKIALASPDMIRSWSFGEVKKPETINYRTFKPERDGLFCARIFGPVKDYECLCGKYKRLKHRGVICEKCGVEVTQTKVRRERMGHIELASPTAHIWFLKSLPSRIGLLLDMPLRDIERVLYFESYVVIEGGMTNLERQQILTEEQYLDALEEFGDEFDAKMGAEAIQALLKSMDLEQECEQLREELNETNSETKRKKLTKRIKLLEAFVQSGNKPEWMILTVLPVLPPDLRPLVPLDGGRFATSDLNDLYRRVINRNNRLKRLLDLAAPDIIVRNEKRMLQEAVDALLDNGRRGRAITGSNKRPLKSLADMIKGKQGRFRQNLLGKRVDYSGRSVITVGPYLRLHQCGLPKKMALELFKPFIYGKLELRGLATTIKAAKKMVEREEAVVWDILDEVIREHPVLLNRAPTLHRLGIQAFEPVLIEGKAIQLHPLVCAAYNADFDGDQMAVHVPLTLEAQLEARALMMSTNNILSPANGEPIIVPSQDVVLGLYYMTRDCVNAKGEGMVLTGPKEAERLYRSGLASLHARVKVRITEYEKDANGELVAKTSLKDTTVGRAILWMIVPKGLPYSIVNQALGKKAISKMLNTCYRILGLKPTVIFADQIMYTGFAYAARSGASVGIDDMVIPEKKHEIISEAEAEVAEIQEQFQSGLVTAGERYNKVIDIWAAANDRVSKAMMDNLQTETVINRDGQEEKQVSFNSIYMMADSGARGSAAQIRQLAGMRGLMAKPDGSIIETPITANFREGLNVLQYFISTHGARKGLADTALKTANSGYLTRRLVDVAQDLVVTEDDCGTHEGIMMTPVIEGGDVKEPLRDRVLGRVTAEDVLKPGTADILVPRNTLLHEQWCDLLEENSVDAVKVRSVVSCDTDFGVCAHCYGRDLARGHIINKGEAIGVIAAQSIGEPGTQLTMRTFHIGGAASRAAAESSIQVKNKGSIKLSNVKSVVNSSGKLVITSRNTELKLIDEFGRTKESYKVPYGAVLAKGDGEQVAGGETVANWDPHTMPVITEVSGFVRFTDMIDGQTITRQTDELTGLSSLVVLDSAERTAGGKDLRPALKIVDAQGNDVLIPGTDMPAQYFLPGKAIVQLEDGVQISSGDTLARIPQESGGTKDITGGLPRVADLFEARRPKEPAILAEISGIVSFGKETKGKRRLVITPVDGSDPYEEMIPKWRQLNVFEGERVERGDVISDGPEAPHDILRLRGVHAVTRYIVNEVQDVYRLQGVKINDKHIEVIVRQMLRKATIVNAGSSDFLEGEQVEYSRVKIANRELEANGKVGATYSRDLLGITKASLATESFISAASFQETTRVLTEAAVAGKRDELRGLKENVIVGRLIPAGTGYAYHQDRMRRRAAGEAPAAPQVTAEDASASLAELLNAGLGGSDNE
T2 sequence (P0A7Z4 whole entry, further chain): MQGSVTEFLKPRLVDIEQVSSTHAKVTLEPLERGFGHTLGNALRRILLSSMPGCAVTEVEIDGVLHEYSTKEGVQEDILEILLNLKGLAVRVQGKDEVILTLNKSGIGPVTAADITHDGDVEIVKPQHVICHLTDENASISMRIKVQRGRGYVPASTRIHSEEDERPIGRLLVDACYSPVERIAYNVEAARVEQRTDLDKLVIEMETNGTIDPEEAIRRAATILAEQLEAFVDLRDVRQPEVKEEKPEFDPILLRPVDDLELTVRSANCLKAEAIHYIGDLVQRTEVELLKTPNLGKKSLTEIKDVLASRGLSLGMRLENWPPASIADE
T2 sequence (P0A800 whole entry, further chain): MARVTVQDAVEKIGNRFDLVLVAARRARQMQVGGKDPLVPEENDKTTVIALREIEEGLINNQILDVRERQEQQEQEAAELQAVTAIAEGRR

A word on the inhibition: it is the percentage by which the read-out fell short of the control. One may read the Inhibition as the share of the control response that was lost under treatment. With `O=C(O)P(=O)(O)O` [phosphonoformic acid], the inhibition at 100 µM in the assay on influenza virus (WSN) is 10%; in assay [2] (100 μM), greater than 99%; in the assay on herpes simplex type 1 (Human alphaherpesvirus 1, 100 μM), 90%. The inhibition at 250 µM with influenza virus (WSN) turned out to be 50%. Further, the results for the inhibition at 500 µM (in the assay with influenza virus (WSN); in assay [2] (500 μM); in assay [3]) were 95%, greater than 99% and 3%, respectively. Also, the Percent inhibition in assay [1] (10 μM) was 90%; in assay [1] (100 μM), 96%; in assay [1] (500 μM), greater than 99%. Further, the “Morphological changes Day 3” value in the assay on visna virus (100 μM) and in the assay with visna virus (500 μM) was “-” throughout. For the same compound, the “Morphological changes Day 5” value in the assay with visna virus (100 μM) is listed as “+ (10% cell degeneration)”; in the assay with visna virus (500 μM) it was “-”. The “Morphological changes Day 7” value was “++ (25% cell degeneration)” with visna virus (100 μM) and “+ (10% cell degeneration)” with visna virus (500 μM). Moreover, the IC50 is 20 µM in the assay with visna virus (Visna-maedi virus, 120 h, SCP cells, virus titre 5 days after infection, read-out: concentration giving 50 percent reduction of virus multiplication) and 50 µM in the assay on HTLV-III (after 6 days of incubation, read-out: concentration giving 50% inhibition of HTLV-III replication). Also, the inhibition at 10 µM in assay [2] (10 μM) turned out to be 92%. Moreover, the Inhibition in assay [4] was 100%. For the same compound, in the assay with HTLV-III (300 μM, after six days of incubation), the inhibition at 300 µM is greater than 95%. In addition, the inhibition at 1 µM in the assay on herpes simplex type 1 (Human alphaherpesvirus 1, 1 μM) was 0%. In the assay on herpes simplex type 1 (Human alphaherpesvirus 1, 15 μM), this compound showed an inhibition at 15 µM of 50%.
